pIC50: −log10 of the molar value.
Assays:
[1] = target: T1, Human CD73 (amino acid residues 27-549) (Homo sapiens, UniProt P21589); assay: CD73 enzymatic assay (luciferase-based indirect assay, CellTiter-Glo); assay type: biochemical; conditions: 0.4 nM CD73, 150 μM AMP, 1 hour at room temperature
T1 construct: Human CD73 (amino acid residues 27-549); His tag (N); made in house; host or cells: E. coli
T1 sequence (P21589 27-549): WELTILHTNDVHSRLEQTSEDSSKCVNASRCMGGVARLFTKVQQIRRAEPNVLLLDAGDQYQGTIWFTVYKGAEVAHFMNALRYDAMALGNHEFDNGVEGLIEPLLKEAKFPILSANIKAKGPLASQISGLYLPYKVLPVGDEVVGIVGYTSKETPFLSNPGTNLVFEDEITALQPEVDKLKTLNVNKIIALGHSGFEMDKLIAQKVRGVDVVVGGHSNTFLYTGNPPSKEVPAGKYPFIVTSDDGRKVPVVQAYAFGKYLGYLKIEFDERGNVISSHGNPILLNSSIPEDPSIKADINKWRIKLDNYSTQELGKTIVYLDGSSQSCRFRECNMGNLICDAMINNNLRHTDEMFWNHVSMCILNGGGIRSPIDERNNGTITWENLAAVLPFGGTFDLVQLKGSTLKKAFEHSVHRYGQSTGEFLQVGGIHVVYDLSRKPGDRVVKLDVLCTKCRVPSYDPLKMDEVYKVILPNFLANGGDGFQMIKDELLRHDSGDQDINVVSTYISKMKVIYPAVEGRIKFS
Outline: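 Luciferase-coupled readout: AMP left after CD73 turnover suppresses CellTiter-Glo signal (1 μM ATP final, 30 min RT). Reaction beforehand: 150 μM AMP, 0.4 nM E. coli-made His-tagged CD73 residues 27-549, test compound, HEPES pH 7.4 with Tween-20, 1 h RT. % inhibition fitted nonlinearly for IC50.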

[2] = target: T2, human CD73 (Homo sapiens, UniProt P21589); assay: Inhibitor activity against CD73 in cell based assay (CD73 expressing CHO-K1 cells); conditions: CHO-K1 cells expressing human CD73, 150 μM AMP, 4 hours of incubation; read-out: CHO-K1 CELL_VARIANT: CD73 IC50
T2 construct: expressed in transfected cells
T2 sequence (P21589 27-549): T1 sequence (P21589 27-549)
Outline: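 AMP (150 μM) was added alongside 8 titrated compound doses (maximum 10 μM, 1:3 steps) to CHO-K1 cells stably expressing human CD73. After 4 h, supernatant AMP was measured indirectly with CellTiter-Glo 2.0 plus 1 μM ATP (30 min, RT). % inhibition versus high and low controls was fitted nonlinearly for IC50.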

Structure (SMILES)	pIC50 [1]	pIC50 [2]
CC(=O)N1CCN(c2ccnc(O[C@@H]3CCN(c4cn[nH]c(=O)c4Cl)C3)c2)[C@H](C)C1 [P-0104, 5-((R)-3-((4-((R)-4-acetyl-2-methylpiperazin-1-yl)pyridin-2-yl)oxy)pyrrolidin-1-yl)-4-chloropyridazin-3(2H)-one]	5.00 to 9.00	4.00 to 5.00
Cc1ccnc(C(C)C)c1Nc1cccnc1O[C@@H]1CCN(c2cn[nH]c(=O)c2Cl)C1 [P-0105, (R)-4-chloro-5-(3-((3-((2-isopropyl-4-methylpyridin-3-yl)amino)pyridin-2-yl)oxy)pyrrolidin-1-yl)pyridazin-3(2H)-one]	5.00 to 9.00	5.00 to 9.00
COc1ccc2c(c1)cc(-c1ccnc(O[C@@H]3CCN(c4cnn(CCO)c(=O)c4Cl)C3)c1)n2C [P-0106, (R)-4-chloro-2-(2-hydroxyethyl)-5-(3-((4-(5-methoxy-1-methyl-1H-indol-2-yl)pyridin-2-yl)oxy)pyrrolidin-1-yl)pyridazin-3(2H)-one]	5.00 to 9.00	5.00 to 9.00
O=c1c(Cl)c(N2CC[C@@H](Oc3cc(N4[C@@H]5CC[C@H]4CC(F)(F)C5)ccn3)C2)cnn1CCO [P-0107, 4-chloro-5-((R)-3-((4-((1R,5S)-3,3-difluoro-8-azabicyclo[3.2.1]octan-8-yl)pyridin-2-yl)oxy)pyrrolidin-1-yl)-2-(2-hydroxyethyl)pyridazin-3(2H)-one]	5.00 to 9.00	4.00 to 5.00
COc1ccc2c(c1)cc(-c1ccnc(O[C@@H]3CCN(c4cn[nH]c(=O)c4Cl)C3)c1)n2C [P-0108, (R)-4-chloro-5-(3-((4-(5-methoxy-1-methyl-1H-indol-2-yl)pyridin-2-yl)oxy)pyrrolidin-1-yl)pyridazin-3(2H)-one]	5.00 to 9.00	5.00 to 9.00
CC(C)c1cc(Nc2cccnc2O[C@@H]2CCN(c3cn[nH]c(=O)c3Cl)C2)n(C)n1 [P-0109, (R)-4-chloro-5-(3-((3-((3-isopropyl-1-methyl-1H-pyrazol-5-yl)amino)pyridin-2-yl)oxy)pyrrolidin-1-yl)pyridazin-3(2H)-one]	5.00 to 9.00	5.00 to 9.00
O=c1[nH]ncc(N2CC[C@@H](Oc3ncccc3NC3CCC(F)(F)CC3)C2)c1Cl [P-0110, (R)-4-chloro-5-(3-((3-((4,4-difluorocyclohexyl)amino)pyridin-2-yl)oxy)pyrrolidin-1-yl)pyridazin-3(2H)-one]	5.00 to 9.00	5.00 to 9.00
O=c1[nH]ncc(N2CC[C@@H](Oc3cc(N4[C@@H]5CC[C@H]4CC(F)(F)C5)ccn3)C2)c1Cl [P-0111, 4-chloro-5-((R)-3-((4-((1R,5S)-3,3-difluoro-8-azabicyclo[3.2.1]octan-8-yl)pyridin-2-yl)oxy)pyrrolidin-1-yl)pyridazin-3(2H)-one]	5.00 to 9.00	4.00 to 5.00
Cc1nn(CC2(C)COC2)c(C)c1-c1ccnc(O[C@@H]2CCN(c3cnn(CCO)c(=O)c3Cl)C2)c1 [P-0112, (R)-4-chloro-5-(3-((4-(3,5-dimethyl-1-((3-methyloxetan-3-yl)methyl)-1H-pyrazol-4-yl)pyridin-2-yl)oxy)pyrrolidin-1-yl)-2-(2-hydroxyethyl)pyridazin-3(2H)-one]	5.00 to 9.00	5.00 to 9.00
Cc1nn(C)c(C)c1-c1ccnc(O[C@@H]2CCN(c3cn[nH]c(=O)c3)C2)c1 [P-0113, (R)-5-(3-((4-(1,3,5-trimethyl-1H-pyrazol-4-yl)pyridin-2-yl)oxy)pyrrolidin-1-yl)pyridazin-3(2H)-one]	5.00 to 9.00	5.00 to 9.00
Cc1nn(C)c(C)c1-c1ccnc(O[C@@H]2CCN(c3cn[nH]c(=O)c3C#N)C2)c1 [P-0114, (R)-3-oxo-5-(3-((4-(1,3,5-trimethyl-1H-pyrazol-4-yl)pyridin-2-yl)oxy)pyrrolidin-1-yl)-2,3-dihydropyridazine-4-carbonitrile]	5.00 to 9.00	5.00 to 9.00
Cc1nn(C)c(C)c1-c1cc(O[C@@H]2CCN(c3cnn(CCO)c(=O)c3Cl)C2)ncc1F [P-0115, (R)-4-chloro-5-(3-((5-fluoro-4-(1,3,5-trimethyl-1H-pyrazol-4-yl)pyridin-2-yl)oxy)pyrrolidin-1-yl)-2-(2-hydroxyethyl)pyridazin-3(2H)-one]	5.00 to 9.00	5.00 to 9.00
O=c1[nH]ncc(N2CC[C@@H](Oc3cc(C4=CCCCC4)ccn3)C2)c1Cl [P-0116, (R)-4-chloro-5-(3-((4-(cyclohex-1-en-1-yl)pyridin-2-yl)oxy)pyrrolidin-1-yl)pyridazin-3(2H)-one]	5.00 to 9.00	5.00 to 9.00
Cc1nn(C)c(C)c1-c1cc(O[C@@H]2CCN(c3cn[nH]c(=O)c3Cl)C2)c(F)cn1 [P-0117, (R)-4-chloro-5-(3-((5-fluoro-2-(1,3,5-trimethyl-1H-pyrazol-4-yl)pyridin-4-yl)oxy)pyrrolidin-1-yl)pyridazin-3(2H)-one]	5.00 to 9.00	5.00 to 9.00
Cc1noc(C)c1-c1cc(O[C@@H]2CCN(c3cn[nH]c(=O)c3Cl)C2)c(F)cn1 [P-0118, (R)-4-chloro-5-(3-((2-(3,5-dimethylisoxazol-4-yl)-5-fluoropyridin-4-yl)oxy)pyrrolidin-1-yl)pyridazin-3(2H)-one]	5.00 to 9.00	5.00 to 9.00
Cc1nn(C)c(C)c1-c1cc(O[C@H]2CN(c3cnn(CCO)c(=O)c3Cl)C[C@@H]2F)ccn1 [P-0119, 4-chloro-5-((3S,4S)-3-fluoro-4-((2-(1,3,5-trimethyl-1H-pyrazol-4-yl)pyridin-4-yl)oxy)pyrrolidin-1-yl)-2-(2-hydroxyethyl)pyridazin-3(2H)-one]	5.00 to 9.00	5.00 to 9.00
Cc1noc(C)c1-c1cc(O[C@H]2CN(c3cnn(CCO)c(=O)c3Cl)C[C@@H]2F)ccn1 [P-0120, 4-chloro-5-((3S,4S)-3-((2-(3,5-dimethylisoxazol-4-yl)pyridin-4-yl)oxy)-4-fluoropyrrolidin-1-yl)-2-(2-hydroxyethyl)pyridazin-3(2H)-one]	5.00 to 9.00	5.00 to 9.00

More lines, now with the values ahead:

pIC50 [1]	pIC50 [2]	Structure (SMILES)
5.00 to 9.00	5.00 to 9.00	Cc1nn(C)c(C)c1-c1cc(O[C@H]2CN(c3cn[nH]c(=O)c3Cl)C[C@@H]2F)ccn1 [P-0121, 4-chloro-5-((3S,4S)-3-fluoro-4-((2-(1,3,5-trimethyl-1H-pyrazol-4-yl)pyridin-4-yl)oxy)pyrrolidin-1-yl)pyridazin-3(2H)-one]
5.00 to 9.00	5.00 to 9.00	Cc1noc(C)c1-c1cc(O[C@H]2CN(c3cn[nH]c(=O)c3Cl)C[C@@H]2F)ccn1 [P-0122, 4-chloro-5-((3S,4S)-3-((2-(3,5-dimethylisoxazol-4-yl)pyridin-4-yl)oxy)-4-fluoropyrrolidin-1-yl)pyridazin-3(2H)-one]
5.00 to 9.00	5.00 to 9.00	Cc1noc(C)c1-c1cc(F)nc(O[C@@H]2CCN(c3cnn(CCO)c(=O)c3Cl)C2)c1 [P-0123, (R)-4-chloro-5-(3-((4-(3,5-dimethylisoxazol-4-yl)-6-fluoropyridin-2-yl)oxy)pyrrolidin-1-yl)-2-(2-hydroxyethyl)pyridazin-3(2H)-one]
5.00 to 9.00	5.00 to 9.00	COCc1noc(C)c1-c1cc(O[C@@H]2CCN(c3cnn(CCO)c(=O)c3Cl)C2)ncn1 [P-0124, (R)-4-chloro-2-(2-hydroxyethyl)-5-(3-((6-(3-(methoxymethyl)-5-methylisoxazol-4-yl)pyrimidin-4-yl)oxy)pyrrolidin-1-yl)pyridazin-3(2H)-one]
5.00 to 9.00	5.00 to 9.00	COCc1noc(C)c1-c1cc(O[C@@H]2CCN(c3cn[nH]c(=O)c3Cl)C2)ncn1 [P-0125, (R)-4-chloro-5-(3-((6-(3-(methoxymethyl)-5-methylisoxazol-4-yl)pyrimidin-4-yl)oxy)pyrrolidin-1-yl)pyridazin-3(2H)-one]
5.00 to 9.00	5.00 to 9.00	Cc1nn(C)c(C)c1-c1ccnc(O[C@@H]2CCN(c3cnn(CC(C)O)c(=O)c3Cl)C2)c1 (stereo partly drawn) [P-0126, 4-chloro-2-(2-hydroxypropyl)-5-((R)-3-((4-(1,3,5-trimethyl-1H-pyrazol-4-yl)pyridin-2-yl)oxy)pyrrolidin-1-yl)pyridazin-3(2H)-one]
5.00 to 9.00	5.00 to 9.00	Cc1nn(C)c(C)c1-c1ccnc(O[C@@H]2CCN(c3cnn(CCCO)c(=O)c3Cl)C2)c1 [P-0127, (R)-4-chloro-2-(3-hydroxypropyl)-5-(3-((4-(1,3,5-trimethyl-1H-pyrazol-4-yl)pyridin-2-yl)oxy)pyrrolidin-1-yl)pyridazin-3(2H)-one]
5.00 to 9.00	5.00 to 9.00	Cc1nn(C)c(C)c1-c1cc(O[C@@H]2CCN(c3cnn(CCO)c(=O)c3Cl)C2)ncn1 [P-0128, (R)-4-chloro-2-(2-hydroxyethyl)-5-(3-((6-(1,3,5-trimethyl-1H-pyrazol-4-yl)pyrimidin-4-yl)oxy)pyrrolidin-1-yl)pyridazin-3(2H)-one]
